We go through twelve molecules from BindingDB's records for doi:10.1021/jm00045a013 (Sandoz Forschungsinstitut Ges.M.B.H., 1994).

The first assay concerns the target T1, Dimer of Gag-Pol polyprotein [489-587] (Human immunodeficiency virus 1, UniProt P12497).
T1 construct: 489-587
In words: Protease Inhibition Assay.
Settings: not given
The procedure:
(§1) Enzymatic activity was measured by following cleavage of the substrate H-Lys-Ala-Arg-Val-Leu-pNph-Glu-Ala-Nle-NH2. Products of the cleavage reaction were quantified by HPLC detection
On to `CC(C)[C@H](NC(=O)OCc1ccccc1)C(=O)N[C@@H](Cc1ccccc1)[C@@H](O)[C@@H](NCc1ccccc1)C(=O)N[C@@H](C(=O)NCc1ccccc1)C(C)(C)C` [5PhBuCOOH deriv.], for which the Ki – broadly, the dissociation constant of the complex between target and ligand, obtained from inhibition or displacement – is over 3000 nM.

`COc1ccc(CN[C@@H](C(=O)N[C@H](C(=O)NCc2nc3ccccc3[nH]2)C(C)C)[C@H](O)[C@H](Cc2ccccc2)NC(=O)[C@@H](NC(=O)[C@@](C)(O)c2ccccc2)C(C)(C)C)cc1` [5PhBuCOOH deriv.] had a Ki of 6 nM. This counts as single-digit nanomolar.

The assay is the same for the next values; noted with them: pH 6.25; 37 °C.
The molecule `CCC(C)[C@H](NC(=O)OCc1ccccc1)C(=O)N[C@@H](Cc1ccccc1)[C@@H](O)[C@@H](NCc1ccccc1)C(=O)N[C@H](C(=O)NCc1ccccc1)C(C)C` (stereo partly drawn) [5PhBuCOOH deriv.] displayed a Ki of 8.3 nM.

In turn, `CC(C)[C@H](NC(=O)[C@H](NCc1ccccc1)[C@H](O)[C@H](Cc1ccccc1)NC(=O)[C@H](CCC(=O)O)NC(=O)OCc1ccccc1)C(=O)NCc1ccccc1` [5PhBuCOOH deriv.] came in with a Ki of 45 nM. Against the preceding molecule, the Ki is about 5.4-fold higher.

`CC(C)[C@H](NC(=O)OCc1ccccc1)C(=O)N[C@@H](Cc1ccccc1)[C@@H](O)[C@@H](NCc1ccccc1)C(=O)N[C@H](C(=O)NCc1ccccc1)C(C)(C)C` [benzyl N-[(1S)-1-{[(2S,3R,4R)-4-(benzylamino)-4-{[(1S)-1-(benzylcarbamoyl)-2,2-dimethylpropyl]carbamoyl}-3-hydroxy-1-phenylbutan-2-yl]carbamoyl}-2-methylpropyl]carbamate]: affinity was put at a Ki of 20 nM.

Take `CCC(C)[C@H](NC(=O)[C@H](NCc1ccccc1)[C@H](O)[C@H](Cc1ccccc1)NC(=O)[C@@H](NC(=O)OCc1ccccc1)C(C)C)C(=O)NCc1ccccc1` (stereo partly drawn) [benzyl N-[(1S)-1-{[(2S,3R,4R)-4-(benzylamino)-4-{[(1S,2R)-1-(benzylcarbamoyl)-2-methylbutyl]carbamoyl}-3-hydroxy-1-phenylbutan-2-yl]carbamoyl}-2-methylpropyl]carbamate]: the Ki was over 3000 nM.

A further assay has as its target T2, Dimer of Gag-Pol polyprotein [514-612] (Human immunodeficiency virus 2, UniProt P04584).
T2 construct: 514-612
T2 sequence (P04584 whole entry): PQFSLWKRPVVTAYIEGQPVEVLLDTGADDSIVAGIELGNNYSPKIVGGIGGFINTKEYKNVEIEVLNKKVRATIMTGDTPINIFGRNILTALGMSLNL
In words: Protease Inhibition Assay.
Settings: not given
The procedure:
as §1
For the molecule `CC(C)[C@H](NC(=O)[C@H](NCc1ccc(Cl)cc1)[C@H](O)[C@H](Cc1ccccc1)NC(=O)[C@@H](NC(=O)OCc1ccccc1)C(C)(C)C)C(=O)NCc1nc2ccccc2[nH]1` [benzyl N-[(1S)-1-{[(2S,3R,4R)-4-{[(1S)-1-[(1H-1,3-benzodiazol-2-ylmethyl)carbamoyl]-2-methylpropyl]carbamoyl}-4-{[(4-chlorophenyl)methyl]amino}-3-hydroxy-1-phenylbutan-2-yl]carbamoyl}-2,2-dimethylpropyl]carbamate], affinity was put at a Ki of 17 nM.

The molecule `COc1ccc(CN[C@@H](C(=O)N[C@H](C(=O)NCc2nc3ccccc3[nH]2)C(C)C)[C@H](O)[C@H](Cc2ccccc2)NC(=O)[C@@H](NC(=O)[C@@](C)(O)c2ccccc2)C(C)(C)C)cc1` [5PhBuCOOH deriv.] registered a Ki of 110 nM.

The molecule `COc1ccc(CN[C@@H](C(=O)N[C@H](C(=O)NCc2nc3ccccc3[nH]2)C(C)C)[C@H](O)[C@H](Cc2ccccc2)NC(=O)[C@@H](NC(=O)CCc2ccc(O)cc2)C(C)(C)C)cc1` [5PhBuCOOH deriv.] came in with a Ki of 63 nM.

For the molecule `COc1ccc(CN[C@@H](C(=O)N[C@H](C(=O)NCc2nc3ccccc3[nH]2)C(C)C)[C@H](O)[C@H](Cc2ccccc2)NC(=O)[C@@H](NC(=O)OCc2ccccc2)C(C)(C)C)cc1` [5PhBuCOOH deriv.], the affinity, expressed as Ki, was 52 nM.

Staying with this assay, now noted: pH 4.7; 37 °C.
The molecule `COc1ccc(CN[C@@H](C(=O)N[C@H](C(=O)NCc2ccccc2)C(C)C)[C@H](O)[C@H](Cc2ccccc2)NC(=O)[C@@H](NC(=O)OCc2ccccc2)C(C)C)cc1` [benzyl N-[(1S)-1-{[(2S,3R,4R)-4-{[(1S)-1-(benzylcarbamoyl)-2-methylpropyl]carbamoyl}-3-hydroxy-4-{[(4-methoxyphenyl)methyl]amino}-1-phenylbutan-2-yl]carbamoyl}-2-methylpropyl]carbamate] displayed a Ki of 39 nM. This lies in the double-digit nanomolar range.

In turn, `CC(C)[C@H](NC(=O)[C@H](NCc1ccccc1)[C@H](O)[C@H](Cc1ccccc1)NC(=O)[C@@H](NC(=O)OCc1ccccc1)C(C)(C)C)C(=O)NCc1ccccc1` [5PhBuCOOH deriv.] came in with a Ki of 54 nM.

`CC(C)[C@H](NC(=O)OCc1ccccc1)C(=O)N[C@@H](Cc1ccccc1)[C@@H](O)[C@@H](NCc1ccccc1)C(=O)N[C@H](C(=O)NCc1ccccc1)C(C)C` [5PhBuCOOH deriv.] had a Ki of 180 nM. Against the preceding molecule, the Ki is about 3.3-fold higher.
